# Like-named read-outs stand apart in the source and are kept apart here.
# Legend:
# Test in all cases: Kinase profiling in a biochemical assay panel (mobility shift assays and ELISA), %-inhibition at 1 μM; selectivity entropy
# [1] = molecular target: panel of more than 300 wild-type and mutant kinases (313 kinase panel) (Homo sapiens, UniProt Q08345)
# [2] = molecular target: panel of more than 300 wild-type and mutant kinases (313 kinase panel) (Homo sapiens, UniProt P54646)
# [3] = molecular target: panel of more than 300 wild-type and mutant kinases (313 kinase panel) (Homo sapiens, UniProt Q86V86)
# [4] = molecular target: panel of more than 300 wild-type and mutant kinases (313 kinase panel) (Homo sapiens, UniProt P53779)
# Sequence of panel of more than 300 wild-type and mutant kinases (313 kinase panel) (Homo sapiens, UniProt P53779) (P53779 whole entry, change not shown): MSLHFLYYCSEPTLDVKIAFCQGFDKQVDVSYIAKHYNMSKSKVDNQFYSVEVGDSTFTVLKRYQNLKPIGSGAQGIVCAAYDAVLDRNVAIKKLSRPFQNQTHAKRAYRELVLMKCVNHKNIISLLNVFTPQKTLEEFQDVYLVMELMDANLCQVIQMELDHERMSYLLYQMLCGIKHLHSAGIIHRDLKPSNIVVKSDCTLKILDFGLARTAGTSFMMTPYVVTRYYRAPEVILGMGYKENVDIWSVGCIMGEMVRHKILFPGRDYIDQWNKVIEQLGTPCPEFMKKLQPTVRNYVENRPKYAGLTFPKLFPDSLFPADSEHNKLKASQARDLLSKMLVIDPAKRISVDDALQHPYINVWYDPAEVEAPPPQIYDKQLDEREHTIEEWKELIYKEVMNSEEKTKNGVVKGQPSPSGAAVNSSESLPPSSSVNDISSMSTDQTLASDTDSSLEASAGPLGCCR
# [5] = molecular target: panel of more than 300 wild-type and mutant kinases (313 kinase panel) (Homo sapiens, UniProt P36894)
# [6] = molecular target: panel of more than 300 wild-type and mutant kinases (313 kinase panel) (Homo sapiens, UniProt P31751)
# Sequence of panel of more than 300 wild-type and mutant kinases (313 kinase panel) (Homo sapiens, UniProt P31751) (P31751 whole entry, change not shown): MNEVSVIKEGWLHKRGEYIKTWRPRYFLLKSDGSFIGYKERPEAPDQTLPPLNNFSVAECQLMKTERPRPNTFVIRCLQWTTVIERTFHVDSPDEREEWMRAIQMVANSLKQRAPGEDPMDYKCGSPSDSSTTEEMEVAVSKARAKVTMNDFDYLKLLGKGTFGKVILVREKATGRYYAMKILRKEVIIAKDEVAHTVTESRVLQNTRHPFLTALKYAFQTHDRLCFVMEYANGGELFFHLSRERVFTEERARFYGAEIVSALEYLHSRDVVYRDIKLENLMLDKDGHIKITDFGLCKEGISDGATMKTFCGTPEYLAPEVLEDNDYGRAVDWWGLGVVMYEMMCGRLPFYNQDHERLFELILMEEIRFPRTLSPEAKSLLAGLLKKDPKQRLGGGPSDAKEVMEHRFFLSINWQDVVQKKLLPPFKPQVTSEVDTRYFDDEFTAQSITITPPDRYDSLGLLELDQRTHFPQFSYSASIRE
# [7] = molecular target: panel of more than 300 wild-type and mutant kinases (313 kinase panel) (Homo sapiens, UniProt Q14012)
# [8] = molecular target: panel of more than 300 wild-type and mutant kinases (313 kinase panel) (Homo sapiens, UniProt P49759)
# Sequence of panel of more than 300 wild-type and mutant kinases (313 kinase panel) (Homo sapiens, UniProt P49759) (P49759 whole entry, change not shown): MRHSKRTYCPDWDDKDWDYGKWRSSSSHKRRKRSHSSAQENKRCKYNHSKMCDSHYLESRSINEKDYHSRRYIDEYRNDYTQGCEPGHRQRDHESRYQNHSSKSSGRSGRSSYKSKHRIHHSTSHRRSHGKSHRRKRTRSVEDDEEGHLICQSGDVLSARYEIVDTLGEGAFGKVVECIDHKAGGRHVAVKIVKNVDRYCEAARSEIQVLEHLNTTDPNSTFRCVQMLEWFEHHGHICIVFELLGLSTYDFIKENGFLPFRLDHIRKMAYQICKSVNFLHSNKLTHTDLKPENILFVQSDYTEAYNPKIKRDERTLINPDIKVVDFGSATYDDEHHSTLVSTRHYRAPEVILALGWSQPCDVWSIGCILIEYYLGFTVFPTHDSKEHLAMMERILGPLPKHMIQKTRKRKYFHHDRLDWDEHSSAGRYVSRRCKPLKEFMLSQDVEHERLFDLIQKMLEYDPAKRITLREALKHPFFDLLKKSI
# [9] = molecular target: panel of more than 300 wild-type and mutant kinases (313 kinase panel) (Homo sapiens, UniProt O00311)
# [10] = molecular target: panel of more than 300 wild-type and mutant kinases (313 kinase panel) (Homo sapiens, UniProt Q9H4A3)
# Sequence of panel of more than 300 wild-type and mutant kinases (313 kinase panel) (Homo sapiens, UniProt Q9H4A3) (Q9H4A3 whole entry, change not shown): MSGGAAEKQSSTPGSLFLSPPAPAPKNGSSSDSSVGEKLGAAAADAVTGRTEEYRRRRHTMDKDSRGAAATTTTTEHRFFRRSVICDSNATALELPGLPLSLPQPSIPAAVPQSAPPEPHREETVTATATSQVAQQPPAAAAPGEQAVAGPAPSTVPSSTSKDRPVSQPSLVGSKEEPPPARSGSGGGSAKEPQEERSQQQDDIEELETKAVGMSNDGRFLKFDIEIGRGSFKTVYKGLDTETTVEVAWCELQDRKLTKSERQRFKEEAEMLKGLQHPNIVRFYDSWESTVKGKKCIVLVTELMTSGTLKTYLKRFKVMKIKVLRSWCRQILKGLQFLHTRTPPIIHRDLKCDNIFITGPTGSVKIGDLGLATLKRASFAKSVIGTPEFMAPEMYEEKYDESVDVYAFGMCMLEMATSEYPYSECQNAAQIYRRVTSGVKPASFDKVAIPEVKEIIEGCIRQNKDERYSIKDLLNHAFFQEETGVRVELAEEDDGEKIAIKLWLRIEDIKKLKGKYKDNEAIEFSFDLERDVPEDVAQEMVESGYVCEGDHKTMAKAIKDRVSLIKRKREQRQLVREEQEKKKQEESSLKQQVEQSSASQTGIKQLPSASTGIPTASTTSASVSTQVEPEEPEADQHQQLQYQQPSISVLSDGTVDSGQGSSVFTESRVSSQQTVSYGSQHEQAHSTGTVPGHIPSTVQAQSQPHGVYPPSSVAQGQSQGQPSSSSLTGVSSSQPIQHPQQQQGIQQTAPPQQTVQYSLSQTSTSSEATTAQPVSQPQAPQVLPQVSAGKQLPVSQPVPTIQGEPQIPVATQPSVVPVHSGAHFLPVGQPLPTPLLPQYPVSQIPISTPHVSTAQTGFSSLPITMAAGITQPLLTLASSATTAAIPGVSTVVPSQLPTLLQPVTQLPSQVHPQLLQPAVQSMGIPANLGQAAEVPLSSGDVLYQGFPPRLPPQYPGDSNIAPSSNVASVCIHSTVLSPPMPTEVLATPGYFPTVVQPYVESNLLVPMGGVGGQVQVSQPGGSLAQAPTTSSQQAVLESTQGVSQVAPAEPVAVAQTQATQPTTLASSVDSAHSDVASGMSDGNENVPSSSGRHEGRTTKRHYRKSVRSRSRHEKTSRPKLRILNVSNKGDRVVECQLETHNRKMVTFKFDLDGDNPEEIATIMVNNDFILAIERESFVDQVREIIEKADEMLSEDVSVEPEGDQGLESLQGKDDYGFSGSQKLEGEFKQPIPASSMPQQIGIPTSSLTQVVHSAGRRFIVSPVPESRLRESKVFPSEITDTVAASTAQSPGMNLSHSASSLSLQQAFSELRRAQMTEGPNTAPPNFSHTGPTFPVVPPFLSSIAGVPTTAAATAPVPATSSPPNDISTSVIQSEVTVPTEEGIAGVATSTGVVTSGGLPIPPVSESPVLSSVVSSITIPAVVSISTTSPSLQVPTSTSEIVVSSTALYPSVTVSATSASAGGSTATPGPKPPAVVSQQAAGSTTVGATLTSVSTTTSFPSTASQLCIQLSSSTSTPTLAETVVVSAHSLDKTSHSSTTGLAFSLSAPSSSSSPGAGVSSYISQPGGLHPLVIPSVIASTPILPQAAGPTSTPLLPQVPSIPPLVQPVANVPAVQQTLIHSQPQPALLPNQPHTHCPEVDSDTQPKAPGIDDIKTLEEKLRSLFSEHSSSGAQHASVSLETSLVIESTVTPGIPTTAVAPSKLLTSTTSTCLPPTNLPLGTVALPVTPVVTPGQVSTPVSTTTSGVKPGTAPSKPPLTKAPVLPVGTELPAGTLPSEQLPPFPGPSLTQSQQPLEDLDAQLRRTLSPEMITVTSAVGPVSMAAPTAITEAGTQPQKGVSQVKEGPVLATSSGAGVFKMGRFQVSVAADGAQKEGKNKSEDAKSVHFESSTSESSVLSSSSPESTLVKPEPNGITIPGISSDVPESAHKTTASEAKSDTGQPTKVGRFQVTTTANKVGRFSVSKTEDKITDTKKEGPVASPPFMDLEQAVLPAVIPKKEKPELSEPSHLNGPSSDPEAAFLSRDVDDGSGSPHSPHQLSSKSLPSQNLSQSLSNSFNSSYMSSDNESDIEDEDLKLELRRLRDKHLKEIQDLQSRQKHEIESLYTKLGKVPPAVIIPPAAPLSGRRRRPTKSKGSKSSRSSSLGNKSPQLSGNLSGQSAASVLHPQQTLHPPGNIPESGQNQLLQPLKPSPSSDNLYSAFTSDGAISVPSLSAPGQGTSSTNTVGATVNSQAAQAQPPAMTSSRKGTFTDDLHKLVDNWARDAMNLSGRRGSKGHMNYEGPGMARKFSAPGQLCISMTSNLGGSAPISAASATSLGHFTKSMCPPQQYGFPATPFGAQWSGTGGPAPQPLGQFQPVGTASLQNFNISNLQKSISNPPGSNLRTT
# [11] = molecular target: T1, panel of more than 300 wild-type and mutant kinases (313 kinase panel) (Homo sapiens, UniProt Q9HBY8)
# T1 sequence (Q9HBY8 1-367): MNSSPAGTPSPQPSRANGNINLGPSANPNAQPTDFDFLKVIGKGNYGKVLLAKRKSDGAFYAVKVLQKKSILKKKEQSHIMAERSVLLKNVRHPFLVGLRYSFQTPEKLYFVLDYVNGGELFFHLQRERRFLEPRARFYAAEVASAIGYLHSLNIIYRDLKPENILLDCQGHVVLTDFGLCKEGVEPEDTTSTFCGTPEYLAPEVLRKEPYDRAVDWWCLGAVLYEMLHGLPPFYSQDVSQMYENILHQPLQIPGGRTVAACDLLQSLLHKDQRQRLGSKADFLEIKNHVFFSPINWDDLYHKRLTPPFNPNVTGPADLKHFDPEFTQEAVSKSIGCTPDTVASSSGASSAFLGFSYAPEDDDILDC
# [12] = molecular target: panel of more than 300 wild-type and mutant kinases (313 kinase panel) (Homo sapiens, UniProt P17948)
# [13] = molecular target: panel of more than 300 wild-type and mutant kinases (313 kinase panel) (Homo sapiens, UniProt P50750)
# [14] = kinase AMPKα2/β1/γ1, 1 μM compound
# [15] = kinase CDK9/CycT1, 1 μM compound
SMILES,"%-inhibition of DDR1 ([1]; kinase DDR1, compound at 1 μM) [%]","%-inhibition, AMPKα2/β1/γ1 [2, 14] [%]","%-inhibition of PIM3 ([3]; kinase PIM3, 1 μM) [%]","%-inhibition of JNK3 ([4]; kinase JNK3, compound at 1 μM) [%]","%-inhibition, BMPR1A ([5]; kinase BMPR1A, 1 μM compound) [%]","%-inhibition, AKT2 ([6]; kinase AKT2, 1 μM compound) [%]","%-inhibition, CaMK1α ([7]; kinase CaMK1α, 1 μM compound) [%]","%-inhibition, CLK1 ([8]; kinase CLK1, 1 μM compound) [%]","%-inhibition, CDC7/ASK ([9]; kinase CDC7/ASK, 1 μM compound) [%]","%-inhibition of WNK1 ([10]; kinase WNK1, compound at 1 μM) [%]","%-inhibition of SGK2 ([11]; kinase SGK2, 1 μM) [%]","%-inhibition of FLT1 ([12]; kinase FLT1, compound at 1 μM) [%]","%-inhibition, CDK9/CycT1 [13, 15] [%]",also measured
COc1cc2nccc(Oc3ccc(NC(=O)C4(C(=O)Nc5ccc(F)cc5)CC4)cc3)c2cc1OC [cabozantinib],102,1.75,0.402,-2,2.27,-3.78,-0.897,7,-3.4,-1.85,-1.48,99,-5.37,
C[C@@H](Oc1cc(-c2cnn(C3CCNCC3)c2)cnc1N)c1c(Cl)ccc(F)c1Cl [crizotinib],97,27,-4,-1.87,41,-2.67,0.734,13,,-3,-2.31,53,5,
C#Cc1cccc(Nc2ncnc3cc(OCCOC)c(OCCOC)cc23)c1 [erlotinib],,,,,,,,,,,,,,"%-inhibition of DDR1 ([1]; 1 µM): 93%; %-inhibition, AMPKα2/β1/γ1 ([2]; 1 µM): 4.43%; %-inhibition of PIM3 ([3]; 1 µM): 0.333%; %-inhibition of JNK3 ([4]; 1 µM): 22%; %-inhibition, BMPR1A [5]: 12%; %-inhibition, AKT2 ([6]; 1 µM): 8%; %-inhibition, CaMK1α ([7]; 1 µM): 2.51%; %-inhibition, CLK1 ([8]; 1 µM): 21%; %-inhibition, CDC7/ASK ([9]; 1 µM): 0.905%; %-inhibition of WNK1 ([10]; 1 µM): 1.82%; %-inhibition of SGK2 ([11]; 1 µM): 10%; %-inhibition of FLT1 ([12]; 1 µM): 70%; %-inhibition, CDK9/CycT1 ([13]; 1 µM): 2.63%"
CO[C@H]1C[C@@H]2CC[C@@H](C)[C@@](O)(O2)C(=O)C(=O)N2CCCC[C@H]2C(=O)O[C@H]([C@H](C)C[C@@H]2CC[C@@H](OCCO)[C@H](OC)C2)CC(=O)[C@H](C)/C=C(\C)[C@@H](O)[C@@H](OC)C(=O)[C@H](C)C[C@H](C)/C=C/C=C/C=C/1C [everolimus],-2.76,-6,-4,-4.31,-3.21,-3.78,-8,-7.39,-6,-5,-2,-2.63,-4,
O=S(=O)(c1cccc2cnccc12)N1CCCNCC1 [fasudil],-1.19,5,3.45,-4,-10,-8,-5.45,32,-7,3,-0.764,-0.73,26,
CS(=O)(=O)CCNCc1ccc(-c2ccc3ncnc(Nc4ccc(OCc5cccc(F)c5)c(Cl)c4)c3c2)o1 [lapatinib],33,,-3.44,11,,4.61,8,14,3,-0.825,1.81,,,"%-inhibition, AMPKα2/β1/γ1 ([2]; 1 µM): -7.39%; %-inhibition, BMPR1A [5]: 7.37%; %-inhibition, CDK9/CycT1 ([13]; 1 µM): 0.501%"
Cc1cn(-c2cc(NC(=O)c3ccc(C)c(Nc4nccc(-c5cccnc5)n4)c3)cc(C(F)(F)F)c2)cn1 [nilotinib],103,-0.54,,39,-22,12,-15,81,-7,-0.88,24,32,9,%-inhibition of PIM3 ([3]; 1 µM): 13%
CNC(=O)c1cc(Oc2ccc(NC(=O)Nc3ccc(Cl)c(C(F)(F)F)c3)c(F)c2)ccn1 [regorafenib],101,16,-6.53,5,-4.65,-4,-6,38,-5.36,-4,1,102,1,
CC(=O)Nc1cccc(-n2c(=O)n(C3CC3)c(=O)c3c(Nc4ccc(I)cc4F)n(C)c(=O)c(C)c32)c1 [trametinib],-2,1.21,8.44,-2.37,2.14,-8,-2,-0.618,-8,-1.42,-7,-2.75,-2.31,
CCCS(=O)(=O)Nc1ccc(F)c(C(=O)c2c[nH]c3ncc(-c4ccc(Cl)cc4)cc23)c1F [vemurafenib],52,6.49,-5,2.85,9,-3,-3.18,5,-7,10,2.66,25,1.33,

# Source: article PMC3961306, “Comparison of the Cancer Gene Targeting and Biochemical Selectivities of All Targeted Kinase Inhibitors Approved for Clinical Use” (PLoS ONE, 2014)
